In patent US20130131065A1, “TREATMENT OF TYPE 2 DIABETES” (priority 2010, published 2013):

Tested on: Rat pancreatic islets
Assay: Apoptosis (cytoplasmic nucleosomes, Cell Death Detection ELISA) in cultured rat pancreatic islets with or without cytokine cocktail
Type: cell-based
Procedure: Male Wistar rat islets (Elevage Janvier, Le Genest-St-Isle, France) were isolated using collagenase (Serva, Heidelberg, Germany) and cultured in RPMI at 11 mM glucose (Invitrogen, CA, USA) supplemented with 10% FCS (Fetal Calf Serum), 100 Units/ml penicillin, 100 μg/ml streptomycin and 100 μg/ml gentamycin in low-attachment 24-well plates (Corning, N.Y., USA). These islets were incubated with a cocktail of rat cytokines (TNF-alpha, IL-1beta and INF-gamma each at 2 ng/ml) for 24 hours (Brun T. et al., 2004 and 2007). […] Aliquots of the medium were used to measure insulin accumulated during the culture period using immune enzyme assay kits (Brunchwig, Basel, Switzerland). Furthermore, quantification of cytoplasmic nucleosomes, a direct indicator of apoptosis, was performed with the Cell Death Detection ELISA kit (Roche, Basel, Switzerland). Each condition was tested with 50 rat islets in duplicate and four independent experiments were performed. The results are provided as mean+/−sem and statistical analyses were performed using one-way ANOVA with Bonferroni and Dunnett post-hoc tests.
The conditions without cytokines allowed the analysis of the specific effect of the compound on islets while the combination of the drug with cytokines allowed the study of the effect of Imeglimin on islets under an inflammatory stress. To measure cell death in islets, quantification of cytoplasmic nucleosomes in islet cells, a consequence of DNA fragmentation during apoptosis (Robertson et al., 2000), was performed. […] Furthermore, a negative control and a positive control were added to the conditions with and without cytokines to test the effectiveness of the protocol. […] The results of the quantification of cell death for each condition are presented on FIG. 1.

[1] = with cytokines (TNF-alpha, IL-1beta, INF-gamma each 2 ng/ml, 24 hours), compound at 100 μM
[2] = with cytokines (each 2 ng/ml, 24 hours), compound at 1 mM
[3] = with cytokines (each 2 ng/ml, 24 hours), Exendin-4 at 10 nM

Molecule | protection of the islets from the cytokine stress (both doses (100 μM and 1 mM), cytokines each 2 ng/ml, 24 hours) | less apoptosis than cytokine-stressed islets [1] [%] | less apoptosis than untreated islets [1] [%] | protection: less apoptosis than cytokine-stressed islets [2] [%] | protection: less apoptosis than untreated islets [2] [%] | more potent than Exendin-4 (protective effect) (with cytokines, lower concentration tested (100 μM) vs Exendin-4 at 10 nM) [%] | level of protection relative to the Exendin-4 level (without cytokines, compound at 100 μM vs Exendin-4 at 10 nM) | less apoptosis than untreated islets (without cytokines, compound at 100 μM, 24 hours) [%] | drop in apoptosis vs cytokine-stressed islets [3] [%] | drop in apoptosis vs untreated islets [3] [%] | decrease in cell death (vs untreated islets) (without cytokines, Exendin-4 at 10 nM, 24 hours) [%]
CC1N=C(N)NC(N(C)C)=N1.Cl (single isomer, unassigned; (+)) [(+)-2-amino-3,6-dihydro-4-dimethylamino-6-methyl-1,3,5-triazine hydrochloride] | completely protected | 37 | 29 | 25 | 16 | ~50 | two thirds | 10 | – | – | –
Exendin-4 [reference compound] | – | – | – | – | – | – | – | – | 29 | 20 | 16
